For experiment [1], the target named is T1, hMC-5R (Homo sapiens, UniProt P33032).
T1 construct: expressed in transfected cells; host or cells: Chinese hamster ovary (CHO) cells
The experiment can be described thus: cAMP assay in CHO cells expressing a human melanocortin receptor. In kind it is cell-based. The following applies: for EC50: CHO cells, 45 minutes at room temperature; for CAMP Assay hMC-5R, % activation at a single concentration: @ 5 (concentration unit not given), relative to α-MSH defined as a 100% agonist. How it is done:
(§1) Chinese hamster ovary cells expressing a human melanocortin receptor were rinsed with calcium- and magnesium-free PBS (Life Technologies), and detached from the tissue culture flasks by 5-minutes incubation with enzyme-free dissociation buffer (S-014-B, Specialty Media). Cells were collected by centrifugation and resuspended in Earle's balanced salt solution (Life Technologies) with addition of 10 mM 4-(2-hydroxyethyl)-1-piperazineethanesulfonic acid (Hepes) buffer, pH 7.5, 5 mM MgCl2, 1 mM glutamine, and 1 mg/ml bovine serum albumin to concentration of 1-5×10^6 cells/ml. Subsequently, cells were counted and the cell suspension was treated with the phosphodiesterase inhibitor 3-isobutyl-1-methylxanthine (to concentration of 0.6 mM).
(§2) A test compound was dissolved in dimethyl sulfoxide (DMSO, 10^−3 to 10^−8 M), diluted with buffer, and 0.1 volume of the solution was added to 0.9 volumes of the cell suspension (1 to 5×10^5 cells); final concentration of DMSO was 1%. After 45 minutes at room temperature, cells were lysed by incubation at 100° C. for 5 minutes to release accumulated cAMP. Accumulation of cAMP was measured in an aliquot of the cell lysate with the Amersham (Arlington Heights, Ill.) cAMP detection assay kit (RPA556). The amount of cAMP produced in response to a tested compound was compared to the amount of cAMP produced in response to α-MSH, defined as a 100% agonist. All active peptides were characterized in three independent experiments.
In general terms: cAMP levels reflect the balance of adenylyl cyclase and phosphodiesterase activity.

Experiment [2] has as its target T2, hMC-3R (Homo sapiens, UniProt P41968).
T2 construct: expressed in transfected cells; host or cells: Chinese hamster ovary (CHO) cells
Described as above. In kind it is cell-based. Particulars: 45 minutes at room temperature. How it is done: as §1, §2

Experiment [3] addresses T3, hMC-4R (Homo sapiens, UniProt P32245).
T3 construct: expressed in transfected cells; host or cells: Chinese hamster ovary (CHO) cells
The description is as above. The class given is cell-based. The following applies: 45 minutes at room temperature. How it is done: as §1, §2

The target of experiment [4] is T1, hMC-5R. The experiment can be described thus: Competitive binding assay, [125I]-NDP-α-MSH, CHO cell membranes. Particulars: 200 pM [125I]-NDP-α-MSH, read-out: Binding Assay IC50 hMC-5R. As for the experimental part:
(§3) The peptides of the present invention were evaluated for agonist activity in receptor binding assay. Crude membrane preparations were obtained from Chinese hamster ovary cells expressing human MC3, MC4, and MC5 receptors. Cells were rinsed with phosphate-buffered saline (PBS) lacking CaCl2 or MgCl2 (Life Technologies, Gaithersburg, Md., USA), and then detached with enzyme-free dissociation media (Specialty Media, Lavellette, N.J., USA). Cells were pelleted at 2800×g for 10 minutes and resuspended in membrane buffer (20 mM Tris, pH 7.2, 5 mM ethylenediaminetetraacetic acid) with 5 μg/ml leupeptin, 5 μg/ml aprotinin, 40 μg/ml bacitracin, and 25 μg/ml pefabloc (Boehringer Mannheim). The cells were […] with 10 strokes by using a motor-driven Teflon-coated pestle in a glass homogenizer at low speed. The resulting cell suspension was centrifuged at 4100×g, 4° C., for 20 minutes. The pellet was resuspended in fresh membrane buffer with protease inhibitors, aliquoted, snap-frozen in liquid nitrogen, and stored at −80° C. The resulting crude membranes were titrated to determine the optimal level necessary for performing binding studies.
(§4) Binding reactions (total volume=250 μl) contained MBB (50 mM Tris, pH 7.2, 2 mM CaCl2, 1 mM MgCl2), 0.1% bovine serum albumin, crude membranes prepared from cells expressing human MC3, MC4, or MC5 receptor, 200 pM of [125I]-NDP-α-MSH (Amersham, Arlington Heighs, Ill., USA), and increasing concentrations of unlabeled test compounds dissolved in dimethylsulfoxide (final concentration=2%). Reactions were incubated for 1 hour without shaking and then filtered through 96-well filter plates (Packard), presoaked in 1% polyethyleneimine. Filters were washed 3 times with TNE buffer (50 mM Tris, pH 7.4, 5 mM ethylene-diaminetetraacetic acid, 150 mM NaCl), dried and counted by using Microscint-20 in a Topcount scintillation counter (Packard). Nonspecific binding was determined in the presence of 2 μm of unlabeled NDP-α-MSH (Peninsula Laboratories). Active peptides were evaluated in three independent experiments.

The target in experiment [5] is T2, hMC-3R. Described as above. The following applies: 200 pM [125I]-NDP-α-MSH, read-out: Binding Assay IC50 hMC-3R. As for the experimental part: as §3, §4
For experiment [6], the target named is T3, hMC-4R. The experiment is described as above. The following applies: 200 pM [125I]-NDP-α-MSH, read-out: Binding Assay IC50 hMC-4R. How it is done: as §3, §4
For experiment [7] the following is noted: rats, cited from earlier work; for Food intake: intraventricular administration / injection.

The values that follow come from US6960646B2, “Cyclic peptides as potent and selective melanocortin-4 receptors agonists” (Merck & Co., Inc., priority 2001, dated 2005).

“Also recorded” adds a separate entry of the source. Starred links: 1 amine or outer side, 2 acyl side, 3 side chain; linkers in the order of their positions; H or OH if unused. Positions of bridges follow the written chain, without caps; N, C: chain ends. Non-standard residues stand in square brackets, D forms with d. Residues, ends and D or L forms follow the SMILES beside them. ξ: configuration not given here. dPhe(4-Cl) = N[C@H](Cc1ccc(Cl)cc1)C(=O)O; 2Nal = N[C@@H](Cc1ccc2ccccc2c1)C(=O)O; Suc = O=C(CCC(=O)[*:2])[*:1]; ξE = NC(CCC(=O)O)C(=O)O; ξDab = NCCC(N)C(=O)O; ξK = NCCCCC(N)C(=O)O; ξDap = NCC(N)C(=O)O; Ava = NCCCCC(=O)O; GABA = NCCCC(=O)O; βAla = NCCC(=O)O Bounds are passed on as bounds.

T2 sequence (P41968 whole entry): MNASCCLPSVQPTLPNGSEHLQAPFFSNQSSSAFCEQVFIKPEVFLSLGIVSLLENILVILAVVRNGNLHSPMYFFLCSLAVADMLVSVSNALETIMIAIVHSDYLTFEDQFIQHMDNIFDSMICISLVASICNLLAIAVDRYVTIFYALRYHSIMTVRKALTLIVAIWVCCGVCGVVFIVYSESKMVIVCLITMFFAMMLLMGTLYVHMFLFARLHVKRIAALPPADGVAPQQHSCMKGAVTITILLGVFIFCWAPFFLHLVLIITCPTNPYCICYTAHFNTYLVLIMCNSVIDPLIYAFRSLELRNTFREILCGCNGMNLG
T3 sequence (P32245 whole entry): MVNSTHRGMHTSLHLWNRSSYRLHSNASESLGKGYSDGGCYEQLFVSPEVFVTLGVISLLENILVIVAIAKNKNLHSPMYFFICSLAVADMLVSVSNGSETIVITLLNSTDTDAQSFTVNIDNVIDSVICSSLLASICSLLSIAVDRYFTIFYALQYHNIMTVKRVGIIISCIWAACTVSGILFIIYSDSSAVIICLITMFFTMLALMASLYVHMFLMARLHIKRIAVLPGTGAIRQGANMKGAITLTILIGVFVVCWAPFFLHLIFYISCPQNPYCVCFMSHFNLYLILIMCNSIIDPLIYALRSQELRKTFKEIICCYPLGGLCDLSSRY
T1 sequence (P33032 whole entry): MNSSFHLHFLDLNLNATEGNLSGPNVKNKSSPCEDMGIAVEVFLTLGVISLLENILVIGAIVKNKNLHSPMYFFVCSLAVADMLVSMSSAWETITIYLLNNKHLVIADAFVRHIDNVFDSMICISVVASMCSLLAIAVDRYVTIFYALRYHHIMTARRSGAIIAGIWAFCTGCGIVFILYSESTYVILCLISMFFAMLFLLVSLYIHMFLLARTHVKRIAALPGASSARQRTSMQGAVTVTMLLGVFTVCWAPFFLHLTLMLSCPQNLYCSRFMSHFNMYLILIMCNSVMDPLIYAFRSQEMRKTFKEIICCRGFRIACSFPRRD

On to `N=C(N)NCCC[C@@H]1NC(=O)[C@@H](Cc2ccccc2)NC(=O)[C@H](Cc2c[nH]cn2)NC(=O)CCC(=O)NCCC(C(N)=O)NC(=O)[C@H](Cc2c[nH]c3ccccc23)NC1=O` (some centres unmarked) [Example 2] (H[dF]RW[ξDab]-NH2; linker N-5 via Suc), for which the EC50 came to 2200 nM in experiment [1], 240 nM in experiment [2] and 2.9 nM in experiment [3]. The concentration for half-maximal inhibition (IC50) in experiment [4] was 7200 nM; in experiment [5], 1800 nM; in experiment [6], 35 nM.
Turning to `N=C(N)NCCC[C@@H]1NC(=O)[C@@H](Cc2ccc(Cl)cc2)NC(=O)[C@H](Cc2c[nH]cn2)NC(=O)CCC(=O)NCCCCC(C(N)=O)NC(=O)[C@H](Cc2c[nH]c3ccccc23)NC1=O` (some centres unmarked) [Example 4] (H[dPhe(4-Cl)]RW[ξK]-NH2; linker N-5 via Suc), the EC50 in experiment [1] was found to be 170 nM; in experiment [2] it was 40 nM; in experiment [3], 0.74 nM. Further, the figures for the IC50 in experiment [4], in experiment [5] and in experiment [6] were 92 nM, 17 nM and 1.7 nM, respectively.
SHU9119: the Food intake entry in experiment [7] is given as “increased food intake; also recorded: stimulates food intake”. For the same compound, the Body weight result in experiment [7] (intraventricular administration) was “increased food intake and body weight”.
With `N=C(N)NCCC[C@@H]1NC(=O)[C@@H](Cc2ccccc2)NC(=O)[C@H](Cc2c[nH]cn2)NC(=O)CCC(=O)NCCCCC(C(N)=O)NC(=O)[C@H](Cc2c[nH]c3ccccc23)NC1=O` (some centres unmarked) [Example 1] (H[dF]RW[ξK]-NH2; linker N-5 via Suc), the EC50 amounted to 1180 nM in experiment [1], 110 nM in experiment [2] and 3.3 nM in experiment [3]. The figures for the IC50 in experiment [4], in experiment [5] and in experiment [6] were 3100 nM, 418 nM and 25 nM, respectively.
As to `N=C(N)NCCC[C@@H]1NC(=O)[C@@H](Cc2ccccc2)NC(=O)[C@H](Cc2c[nH]cn2)NC(=O)CCC(=O)NCC(C(N)=O)NC(=O)[C@H](Cc2c[nH]c3ccccc23)NC1=O` (some centres unmarked) [Example 3] (H[dF]RW[ξDap]-NH2; linker N-5 via Suc), the “CAMP Assay hMC-5R, % activation at a single concentration” value in experiment [1] amounted to 12% @ 5. For the same compound, the EC50 turned out to be 590 nM in experiment [2] and 33 nM in experiment [3]. The half-maximal inhibitory concentration (IC50) in experiment [4] was 3600 nM; in experiment [5], 1600 nM; in experiment [6], 71 nM.
As to `N=C(N)NCCC[C@@H]1NC(=O)[C@@H](Cc2ccccc2)NC(=O)[C@H](Cc2c[nH]cn2)NC(=O)CCCNC(=O)CCC(C(N)=O)NC(=O)[C@H](Cc2c[nH]c3ccccc23)NC1=O` (some centres unmarked) [Example 7] ([GABA]H[dF]RW[ξE]-NH2; lactam N-6), the EC50 in experiment [1] is over 5000 nM; in experiment [2], 310 nM; in experiment [3] it was 5.7 nM. The IC50 is over 5000 nM in experiment [4], 1830 nM in experiment [5] and 41 nM in experiment [6].
Regarding `N=C(N)NCCC[C@@H]1NC(=O)[C@@H](Cc2ccccc2)NC(=O)[C@H](Cc2c[nH]cn2)NC(=O)CCC(=O)NCCCCC(C(N)=O)NC(=O)[C@H](Cc2ccc3ccccc3c2)NC1=O` (some centres unmarked) [Example 5] (H[dF]R[2Nal][ξK]-NH2; linker N-5 via Suc), the EC50 is over 5000 nM in experiment [1], 360 nM in experiment [2] and 3.7 nM in experiment [3]. For the same compound, the IC50 is over 20000 nM in experiment [4], 440 nM in experiment [5] and 13 nM in experiment [6].
As for `N=C(N)NCCC[C@@H]1NC(=O)[C@@H](Cc2ccccc2)NC(=O)[C@H](Cc2c[nH]cn2)NC(=O)CNC(=O)CCC(C(N)=O)NC(=O)[C@H](Cc2c[nH]c3ccccc23)NC1=O` (some centres unmarked) [Example 9] (GH[dF]RW[ξE]-NH2; lactam N-6), the “CAMP Assay hMC-5R, % activation at a single concentration” value in experiment [1] was 15% @ 5. The figures for the EC50 in experiment [2] and in experiment [3] were 2200 nM and 35 nM, respectively. Also, the results for the IC50 in experiment [4], in experiment [5] and in experiment [6] were over 1000 nM, over 1000 nM and 290 nM, respectively.
Turning to `N=C(N)NCCC[C@@H]1NC(=O)[C@@H](Cc2ccccc2)NC(=O)[C@H](Cc2c[nH]cn2)NC(=O)CCCCNC(=O)CCC(C(N)=O)NC(=O)[C@H](Cc2c[nH]c3ccccc23)NC1=O` (some centres unmarked) [Example 6] ([Ava]H[dF]RW[ξE]-NH2; lactam N-6), the values for the EC50 in experiment [1], in experiment [2] and in experiment [3] were 1900 nM, 190 nM and 2.7 nM, respectively. Besides, the IC50 in experiment [4] was 9000 nM; in experiment [5] it was 580 nM; in experiment [6], 12 nM.
MTII: in experiment [7], the Food intake entry was “reduced food intake”.
On to `N=C(N)NCCC[C@@H]1NC(=O)[C@@H](Cc2ccccc2)NC(=O)[C@H](Cc2c[nH]cn2)NC(=O)CCNC(=O)CCC(C(N)=O)NC(=O)[C@H](Cc2c[nH]c3ccccc23)NC1=O` (some centres unmarked) [Example 8] ([βAla]H[dF]RW[ξE]-NH2; lactam N-6), for which the IC50 in experiment [4] came to 5050 nM; in experiment [5] it was 450 nM.

The EC50 is the concentration at which the effect is half-maximal. The term IC50 denotes the concentration that gives 50% inhibition.
